Measured values taken from US5866346A (priority 1997, dated 1999).
Like-named read-outs stand apart in the source and are kept apart here.

Assays:
[1] = target: T1, XOR1 (rat opioid receptor-like novel receptor) (Rattus norvegicus, UniProt P35370); assay: Inhibition of forskolin-stimulated cyclic AMP increase in cells transiently transfected with XOR1; format: cell-based; settings: 5 μM ligand, 10 μM forskolin
T1 construct: expressed in transfected cells; host or cells: CHO-K1 and HEK-293 cells, transient calcium phosphate transfection
T1 sequence (P35370 whole entry): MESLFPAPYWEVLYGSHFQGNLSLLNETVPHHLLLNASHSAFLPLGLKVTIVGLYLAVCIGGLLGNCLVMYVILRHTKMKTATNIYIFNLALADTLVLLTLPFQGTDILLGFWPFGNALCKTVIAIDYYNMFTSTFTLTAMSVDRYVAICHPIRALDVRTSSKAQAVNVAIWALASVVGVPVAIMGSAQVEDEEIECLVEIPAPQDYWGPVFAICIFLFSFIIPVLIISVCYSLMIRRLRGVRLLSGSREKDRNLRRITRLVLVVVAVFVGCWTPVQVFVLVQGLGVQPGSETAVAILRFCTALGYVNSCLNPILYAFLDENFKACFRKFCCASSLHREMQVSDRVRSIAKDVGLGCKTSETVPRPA
Method: FIGS. 4A and 4B. Inhibition of forskolin-stimulated cyclic AMP increase by dyn A-(1-13). CHO-K1 or HEK-293 cells transiently transfected with the XOR1 clone were treated with 10 μM forskolin with or without 5 μM dyn A-(1-13). The control cells were transfected with the plasmid vector and underwent the same treatment. Intracellular cyclic AMP content was determined using a radioimmunoassay kit (DuPont/NEN). Data are shown as mean ± S.E. (n=2). * indicates a significant-difference from the forskolin-only treated cells (Student's t-test, p<0.01).
Cell transfection and cyclic AMP assay--The CHO-K1 and HEK-293 cells were transiently transfected with either XOR1 (rat opioid receptor-like novel receptor) cDNA in pRc/CMV (Invitrogen) or vector only (as control) by calcium phosphate method as described by Chen et al., Mol. Cell Biol. 7:2745-2752 (1987). Three days after transfection, cells were harvested by trypsin treatment, washed and resuspended in serum-free medium. Cells were treated with ligands in the presence of 10 μM forskolin and 1 mM 3-iosbutyl-1-methylxanthine at 37° C. for 20 min. The reaction was terminated by adding 1/3 volume of 0.25M HCl. The mixture was boiled for 5 min and centrifuged at 14,000 g for 10 min. […] The cAMP in cells was determined by the nonacetylated method using the radioimmunoassay kit (DuPont/NEN) according to the manufacturer's instructions.

[2] = target: kappa opioid receptor (KOR) (Cavia porcellus, UniProt P41144); settings: read-out: KOR (Ki) Guinea pig (36); cited from earlier work
Chain of kappa opioid receptor (KOR) (Cavia porcellus, UniProt P41144) (P41144 whole entry): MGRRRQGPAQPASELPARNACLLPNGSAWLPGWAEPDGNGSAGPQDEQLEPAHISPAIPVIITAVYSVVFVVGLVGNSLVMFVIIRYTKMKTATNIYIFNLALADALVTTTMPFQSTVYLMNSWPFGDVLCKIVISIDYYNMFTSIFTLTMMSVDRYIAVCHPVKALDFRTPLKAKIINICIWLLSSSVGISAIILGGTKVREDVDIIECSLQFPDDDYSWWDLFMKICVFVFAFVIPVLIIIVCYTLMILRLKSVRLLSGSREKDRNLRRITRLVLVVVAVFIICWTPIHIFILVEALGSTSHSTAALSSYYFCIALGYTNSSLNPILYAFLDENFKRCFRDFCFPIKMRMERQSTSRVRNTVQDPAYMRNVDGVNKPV

[3] = target: kappa opioid receptor (KOR) (Rattus norvegicus, UniProt P34975); settings: cited from earlier work
Chain of kappa opioid receptor (KOR) (Rattus norvegicus, UniProt P34975) (P34975 whole entry): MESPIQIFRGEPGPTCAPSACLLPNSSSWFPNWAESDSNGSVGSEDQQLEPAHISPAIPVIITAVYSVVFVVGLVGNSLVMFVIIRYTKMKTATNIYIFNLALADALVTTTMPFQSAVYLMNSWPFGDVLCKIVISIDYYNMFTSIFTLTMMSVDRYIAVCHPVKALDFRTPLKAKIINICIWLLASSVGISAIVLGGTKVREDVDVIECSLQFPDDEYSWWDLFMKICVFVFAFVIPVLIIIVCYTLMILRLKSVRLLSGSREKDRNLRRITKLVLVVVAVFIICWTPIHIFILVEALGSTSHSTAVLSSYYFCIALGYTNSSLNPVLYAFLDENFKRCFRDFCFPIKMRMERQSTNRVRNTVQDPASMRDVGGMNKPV

CC[C@H](C)[C@H](NC(=O)[C@H](CCCNC(=N)N)NC(=O)[C@H](CCCNC(=N)N)NC(=O)[C@H](CC(C)C)NC(=O)[C@H](Cc1ccccc1)NC(=O)CNC(=O)CNC(=O)[C@@H](N)Cc1ccc(O)cc1)C(=O)N[C@@H](CCCNC(=N)N)C(=O)N1CCC[C@H]1C(=O)N[C@@H](CCCCN)C(=O)N[C@@H](CC(C)C)C(=O)N[C@@H](CCCCN)C(=O)O [dyn A-(1-13), dynorphin A (1-13)]
inhibition of forskolin-stimulated cAMP increase ([1]; CHO-K1 cells): 51% | inhibition of forskolin-stimulated cAMP increase ([1]; HEK-293 cells): 35% | Ki [2]: 710 pM | Ki ([3]; read-out: KOR (Ki) Rat (34)): 120 pM

CC[C@H](C)[C@H](NC(=O)[C@H](CCCNC(=N)N)NC(=O)[C@H](CCCNC(=N)N)NC(=O)[C@H](CC(C)C)NC(=O)[C@H](Cc1ccccc1)NC(=O)CNC(=O)CNC(=O)[C@@H](N)Cc1ccc(O)cc1)C(=O)N[C@@H](CCCNC(=N)N)C(=O)N1CCC[C@H]1C(=O)N[C@@H](CCCCN)C(=O)N[C@@H](CC(C)C)C(=O)N[C@@H](CCCCN)C(=O)N[C@@H](Cc1c[nH]c2ccccc12)C(=O)N[C@@H](CC(=O)O)C(=O)N[C@@H](CC(N)=O)C(=O)N[C@@H](CCC(N)=O)C(=O)O [dyn A, dynorphin A]
Ki [2]: 580 pM | Ki ([3]; read-out: KOR (Ki) Rat (27)): 150 pM | Ki ([3]; read-out: KOR (Ki) Rat (33)): 50 pM | Ki ([3]; read-out: KOR (Ki) Rat (34)): 110 pM
